Reference: patent US20020094524A1, “Compositions and methods for inhibiting HIV infection” (priority 2000, published 2002)

Key:
HIV gag mRNA = HIV gag mRNA by RT-PCR / real time RT-PCR in infected MDM; type: cell-based
Procedure: HIV Infection: After 2 h incubation with or without the reagents described above, the cells were infected with equal amounts of cell-free HIV based on p24 antigen content (20 ng/10^6 cells) overnight, and then washed to remove unbound virus. Fresh media containing SP and/or CP-96,345 or anti-SP antibody were added to the MDM as described above. The culture media and the reagents were replaced twice weekly. The culture supernatants were harvested for HIV reverse transcriptase (RT) activity determinations. After HIV infection, the MDM were incubated for 8 to 12 days. At the termination of the experiments, cellular RNA was extracted for assessment of HIV gag gene expression using RT-PCR or real time RT-PCR assays.
Total RNA was isolated from human peripheral blood MDM (10^6 cells) using Tri-Reagent (Molecular Research Center, Cincinnati, Ohio) as we previously reported (16).
Reverse transcription: Total RNA (1 μg) was reverse transcribed using Reverse Transcription System (Promega, Madison, Wis.) with the specific primers (antisense) for HIV gag (5′-[…]-[…]-3′; SEQ ID NO: 1) (27) or CCR5 (5′-[…]-3′; SEQ ID NO: 2) (32) for 1 h at 42° C. RT reactions was terminated by incubating the reaction mixture at 99° C. for 5 min and then kept at 4° C. The resulting cDNA was used as a template for PCR amplification or real time PCR quantification. […]

CCR5 = assay: Macrophage receptor expression by flow cytometry; type: cell-based, human
Procedure: The cells were removed from the culture plate and then resuspended in 100 μl of phosphate-buffered saline (PBS). After incubation with 20 μl of either anti-CCR5-FITC or anti-CXCR4-FITC or anti-CD4-FITC or anti-CD14-FITC for 45 min at 4° C., the cells were washed twice with PBS and fixed with 1% paraformaldehyde in PBS. Fluorescein-conjugated control antibodies were isotype-matched IgG. Fluorescence was analyzed on an EPICS-Elite flow cytometer (Beckman-Coulter Electronics, Hialeah, Fla.).

HIV Bal strain = assay: HIV-induced syncytia formation in MDM; type: cell-based; details: 10^−7M; 12 days after infection (FIG. 2)
Procedure: Syncytia formation: To study the effect of neuropeptide antagonists on HIV-induced syncytia formation in MDM, 7-day-cultured macrophages were incubated in the presence or absence of CP-96,345 (10^−7M) for 2 h and then infected with HIV Bal strain. MDM which were neither incubated with CP-96,345 nor infected with HIV were used as a cell culture control. The morphology of HIV-induced syncytia formation was observed and photographed by a light microscopy (×400) 12 days after HIV infection.

IL-6 = IL-6 production in LPS-treated MDM (ELISA); type: cell-based, human; details: 10^−9 to 10^−7M; LPS 1 ng/ml; 24 h (FIG. 11)
Procedure: In order to determine the role of CP-96,345 in the regulation of cytokine secretion, 7-day-cultured MDM were incubated with or without CP-96,345 (10^−9 to 10^−7M) and/or LPS (1 ng/ml) for 24 h. The culture supernatants were collected to determine TNF-α and IL-6 levels by ELISA. The ELISA kits were purchased from Endogen, Inc. (Woburn, Mass.).

HIV LTR promoter = assay: HIV LTR-driven CAT activity assay in U38 cells; type: cell-based
From the text: ACH-2 and U38 cell lines (25, 26) were obtained from the NIH AIDS Reagent Program. DNA extracted from ACH-2 cells was used as a positive standard for HIV DNA PCR as previously reported (27). The U38 cell line contains stably integrated, silent copies of the HIV LTR (long terminal repeat) promoter linked to a CAT (chloramphenicol acetyltransferase) gene and was used to study the effect of SP and/or CP-96,345 and R-113281 on the activation of HIV LTR promoter.
Chloramphenicol acetyltransferase (CAT) activity assay:U38 cells (2×10^6 cells) were incubated with different concentrations of SP and/or CP-96,345 or R-113281 for 48 h. Untreated U38 cells were used as a background control. Cellular proteins were extracted using 1× Reporter Lysis Bufffer (Promega Corp., Madison, Wis.). The lysates were incubated with a mixture containing 0.15 μCi of ^14C-labeled chloramphenicol (DuPont Inc., Boston, Mass.) and 200 μg/ml of n-Butyryl CoA (Promega Corp., Madison, Wis.) in a total volume of 125 μl at 37° C. for 3 h. The acetylated forms of chloramphenicol were extracted with xylene (Aldrich Chemical Company, Milwaukee, Wis.). CAT activity of each sample was quantified using a liquid-scintillation counter (Packard Instrument Company, Downers Grove, Ill.). The results were expressed as the ratio of CAT activity (CPM) of the SP and/or CP-96,345-treated or R-113281-treated U38 to that of the background control.

Row | SMILES | HIV gag mRNA expression (RT-PCR) (HIV gag mRNA; 10^−11 to 10^−7 M, 12 days after infection, concentration-dependent (FIG. 3 top panel)) | HIV gag gene mRNA expression (real time RT-PCR copy numbers) (HIV gag mRNA; all three concentrations tested, 12 days after infection (FIG. 3)) | CCR5 receptor expression on MDM (percentage positive cells) (CCR5; overnight/24 h, among CD4, CCR5, CXCR4 and CD14 only CCR5 changed (FIG. 8)) | HIV-induced giant syncytia formation in MDM (HIV Bal strain) | IL-6 production in MDM (IL-6) | effect on SP activation of HIV LTR-driven CAT activity (HIV LTR promoter; SP 10^−8M, CP-96,345 10^−6M, 48 h (FIG. 7)) | CCR5 protein expression (percentage CCR5 positive cells, flow cytometry) (CCR5; R-113281 10^−6M, 24 hours (FIG. 15B)) | effect on SP activation of HIV LTR-driven CAT activity (HIV LTR promoter; SP (10^−8M), R-113281 10^−6M, 48 hours (FIG. 16))
1 | COc1ccccc1CN[C@H]1C2CCN(CC2)[C@H]1C(c1ccccc1)c1ccccc1 [CP-96,345, 2S, 3S)-cis-2-(diphenylmethyl)-N-[(2-methoxyphenyl)-methyl]-1-azabicyclo[[2.2.2]octan-3-amine] | potently inhibited | significantly suppress | down-regulated | failed to develop the giant syncytia | not affected | abrogated |  | 
2 | COc1cc(C(=O)N2CCO[C@](CCN3CCC4(CC3)c3ccccc3C[S@+]4[O-])(c3ccc(Cl)c(Cl)c3)C2)cc(OC)c1OC.Cl [R-113281] |  |  |  |  |  |  | inhibited | abrogated
